Converted amounts (≈) assume the structure as drawn.

Usually logD stands for the decadic logarithm of the distribution of all forms, ionised or not, between an organic phase and buffer at a given pH. The low end stands for a more hydrophilic compound, the high end for a more lipophilic compound. Usually thermodynamic solubility stands for the concentration in solution at equilibrium with solid.

Data set [1] is described as follows: physchem. To be noted: octan-1-ol/water.
Data set [2] in a line: physchem. To be noted: pH 7.4 buffer.

For `COc1cc2ncnc(Nc3cccc(Cl)c3F)c2cc1CN(C)[C@@H](C)C(N)=O`, the logD in “physchem [1]” (pH 7.4, LogD7.4) came out at 3.42. Moreover, the thermodynamic solubility in the data set “physchem [2]” was 42.7 µM (≈ 17.8 µg/mL).

For the molecule `COCC(=O)N1CCC(n2cc(-c3cnc(N)c(-c4nc5ccccc5o4)c3)cn2)CC1`, the logD in “physchem [1]” (pH 7.4, LogD7.4) was 3.4. The solubility (thermodynamic) in the data set “physchem [2]” stood at 1.9 µM (≈ 0.822 µg/mL).

With `Clc1cccc(Cl)c1-c1nnc2cccc(Cl)n12`, the logD in the data set “physchem [1]” (pH 7.4, LogD7.4) was found to be 2.66. Moreover, the thermodynamic solubility in “physchem [2]” turned out to be 115 µM (≈ 34.3 µg/mL).

For `O=C(O)c1ccccc1Cn1nnc(-c2cccc(OCc3ccc4ccccc4n3)c2)n1`, the logD in “physchem [1]” (pH 7.4, LogD7.4) came to 2.1. Besides, the solubility (thermodynamic) in “physchem [2]” worked out at 7.8 µM (≈ 3.41 µg/mL).

Turning to `Cc1ncc(-c2ccnc(Nc3ccccc3)n2)n1C(C)C`, the logD in “physchem [1]” (pH 7.4, LogD7.4) was 3.58. In addition, in the data set “physchem [2]”, the solubility (thermodynamic) is 35.5 µM (≈ 10.4 µg/mL).

On to `O=CN(O)C1(CS(=O)(=O)N2CCN(c3ccc(F)cc3)CC2)CCOCC1`, for which the logD in “physchem [1]” (pH 7.4, LogD7.4) stood at 0.85. In addition, in the data set “physchem [2]”, the solubility (thermodynamic) came to 1380 µM (≈ 554 µg/mL).

Take `CS(=O)(=O)Nc1cccc(NC(=O)CN2CCN(C(=O)C[C@H](N)Cc3ccc(F)c(F)c3)[C@H](Cc3ccccc3)C2)c1`: in the data set “physchem [1]” (pH 7.4, LogD7.4), the logD was found to be 2.06. Further, the solubility (thermodynamic) in the data set “physchem [2]” worked out at 661 µM (≈ 396 µg/mL).

In the data set “physchem [1]” (pH 7.4, LogD7.4), `Cc1ccc(NC(=O)c2cccnc2)cc1-n1cnc2ccc(N3CCN(C)CC3)cc2c1=O` yielded a logD of 1.5. Besides, the solubility (thermodynamic) in “physchem [2]” came out at 251 µM (≈ 114 µg/mL).

The molecule `CN(C)C(=O)[C@H](Cc1ccccc1)NC(=O)c1cc2sccc2[nH]1` showed a log distribution coefficient (logD) in “physchem [1]” (pH 7.4, LogD7.4) of 3.1. Moreover, in the data set “physchem [2]”, the solubility (thermodynamic) came to 17 µM (≈ 5.8 µg/mL).

For the molecule `CCOc1cc2nccc(Oc3cnc(CC(=O)Nc4n[nH]c(CC)c4C)c(OC)c3)c2cc1OC`, in “physchem [1]” (pH 7.4, LogD7.4), the logD was 3.29. The solubility (thermodynamic) in “physchem [2]” is 2.2 µM (≈ 1.08 µg/mL).

In “physchem [1]” (pH 7.4, LogD7.4), `Cc1ccc(CO)cc1N(C)c1ccnc(Nc2cc(N3CCOCC3)nc(N3CCOCC3)c2)n1` came in with a logD of 3.44. Also, in “physchem [2]”, the thermodynamic solubility turned out to be 39.8 µM (≈ 19.6 µg/mL).

`Oc1cccc2nc(-c3ccccc3)cc(O)c12` showed a log distribution coefficient (logD) in “physchem [1]” (pH 7.4, LogD7.4) of 3.37. The same molecule showed a thermodynamic solubility in “physchem [2]” of 5 µM (≈ 1.19 µg/mL).

`O=C(CS(=O)(=O)c1ccccc1)c1ccccc1` gave a logD in the data set “physchem [1]” (pH 7.4, LogD7.4) of 1.86. This molecule had a thermodynamic solubility in “physchem [2]” of 234 µM (≈ 61 µg/mL).

`Cc1ccc(NC(=O)c2ccnc(N3CCOCC3)c2)cc1Nc1ccnc(OCC(C)(C)CN(C)C)n1`: in the data set “physchem [1]” (pH 7.4, LogD7.4), the logD stood at 2.2. The molecule further returned a solubility (thermodynamic) in “physchem [2]” of 490 µM (≈ 255 µg/mL).

As to `FC(F)c1nc2ccccc2n1-c1nc(N2CCOCC2)nc(N2CCOCC2)n1` [ZSTK-474], the logD in the data set “physchem [1]” (pH 7.4, LogD7.4) amounted to 3.04. For the same molecule, in “physchem [2]”, the solubility (thermodynamic) worked out at 0.7 µM (≈ 0.292 µg/mL).

On to `O=S(=O)(Nc1nc(-c2sccc2Cl)cs1)c1cc(Cl)ccc1Cl`, for which the logD in the data set “physchem [1]” (pH 7.4, LogD7.4) stood at 2.11. For the same molecule, the thermodynamic solubility in “physchem [2]” amounted to 151 µM (≈ 64.5 µg/mL).

Take `CCCc1cc(Nc2nc(NCc3cc(C)no3)ncc2Br)n[nH]1`: the logD in the data set “physchem [1]” (pH 7.4, LogD7.4) came out at 3.63. The thermodynamic solubility in “physchem [2]” came to 2.7 µM (≈ 1.06 µg/mL).

`O=C(NCC(=O)N(CCO)c1ccccc1)c1cc2cc(Cl)ccc2[nH]1` came in with a logD in the data set “physchem [1]” (pH 7.4, LogD7.4) of 3.37. Also, the solubility (thermodynamic) in the data set “physchem [2]” was 1.8 µM (≈ 0.669 µg/mL).

For the molecule `COc1cc2c(c(OC)c1OC)-c1ccc(O)cc1[C@@H](NC(C)=O)CC2` [N-ACETYLCOLCHINOL], the logD in “physchem [1]” (pH 7.4) came out at 1.81. Further, the solubility (thermodynamic) in “physchem [2]” worked out at 813 µM (≈ 290 µg/mL).

Take `COc1cc2c(Nc3cc(CC(=O)Nc4cccc(F)c4F)[nH]n3)ncnc2cc1OCCCN1CCC[C@@H]1CO`: in the data set “physchem [1]” (pH 7.4, LogD7.4), the logD was determined as 1.96. The thermodynamic solubility in “physchem [2]” stood at 813 µM (≈ 461 µg/mL).

Molecule `CCCSc1nc(N2CCOCC2)ccc1C(=O)N[C@H]1C2CC3CC1C[C@](O)(C3)C2` yielded a logD in “physchem [1]” (pH 7.4, LogD7.4) of 3.2. The same molecule yielded a solubility (thermodynamic) in the data set “physchem [2]” of 479 µM (≈ 207 µg/mL).

The molecule `FC(F)(F)c1nnc2ccc(NCn3nnc4ccccc43)nn12` returned a logD in the data set “physchem [1]” (pH 7.4, LogD7.4) of 2.34. The molecule also gave a solubility (thermodynamic) in “physchem [2]” of 18.2 µM (≈ 6.08 µg/mL).

For `CC(C)Cn1cnc(-c2ccccc2)c1-c1nc2c(N)ncnc2s1`, in the data set “physchem [1]” (pH 7.4, LogD7.4), the logD is 3.72. Further, the solubility (thermodynamic) in the data set “physchem [2]” stood at 70.8 µM (≈ 24.8 µg/mL).

In turn, `C[C@@H]1CN(c2nc(N3CCOCC3)c3ccc(Nc4ccccc4)nc3n2)C[C@H](C)O1` came in with a logD in the data set “physchem [1]” (pH 7.4, LogD7.4) of 4.12. For the same molecule, the solubility (thermodynamic) in “physchem [2]” is 1.4 µM (≈ 0.589 µg/mL).

Consider `CCN(CC)c1ncnc2c1ncn2Cc1c(Cl)cccc1Cl`, for which the logD in “physchem [1]” (pH 7.4) came out at 1.25. For the same molecule, in “physchem [2]”, the thermodynamic solubility stood at 2.3 µM (≈ 0.806 µg/mL).

The molecule `COc1ccc(-c2c(-c3ccc(O)cc3O)n[nH]c2C)cc1` had a logD in the data set “physchem [1]” (pH 7.4, LogD7.4) of 3.37. The same molecule came in with a solubility (thermodynamic) in “physchem [2]” of 209 µM (≈ 61.9 µg/mL).

With `Nc1ncnc2c1C(=O)N(c1ccc([C@H]3CC[C@H](CC(=O)O)CC3)cc1)CCO2` [PF-04620110], in “physchem [1]” (pH 7.4, LogD7.4), the logD was -0.5. Moreover, the solubility (thermodynamic) in the data set “physchem [2]” was determined as 759 µM (≈ 301 µg/mL).

In turn, `CC1CN(C(=O)c2ccccc2)c2ccccc2NC1=O` (centres undefined) registered a logD in the data set “physchem [1]” (pH 7.4, LogD7.4) of 1.73. Besides, in “physchem [2]”, the solubility (thermodynamic) was 1200 µM (≈ 337 µg/mL).

As for `CCOC(=O)c1ccc(OCCC2CN(c3ccc(C)nn3)CCO2)cc1` (centres undefined), the logD in “physchem [1]” (pH 7.4, LogD7.4) turned out to be 2.7. Moreover, the solubility (thermodynamic) in “physchem [2]” came to 15.8 µM (≈ 5.87 µg/mL).

`O=C(CN1CCOCC1)Nc1ccc(-c2cccc3c(=O)cc(N4CCOCC4)oc23)cc1OCC1CC1`: the logD in the data set “physchem [1]” (pH 7.4, LogD7.4) is 3.3. Further, the solubility (thermodynamic) in the data set “physchem [2]” worked out at 1.5 µM (≈ 0.779 µg/mL).

In the case of `CC(=O)[C@H]1CC[C@H]2[C@@H]3CCC4=CC(=O)CC[C@]4(C)[C@H]3CC[C@]12C` [PROGESTERONE], the logD in “physchem [1]” (pH 7.4) was 3.94. For the same molecule, in “physchem [2]”, the thermodynamic solubility came to 37.2 µM (≈ 11.7 µg/mL).

For `CS(=O)(=O)c1cccc(Nc2nccc(Nc3cccc4[nH]ncc34)n2)c1`, the logD in the data set “physchem [1]” (pH 7.4, LogD7.4) is 2.91. The solubility (thermodynamic) in “physchem [2]” is 6.8 µM (≈ 2.59 µg/mL).

These data come from ChEMBL document CHEMBL3301361, “Experimental in vitro DMPK and physicochemical data on a set of publicly disclosed compounds”.
